ChEMBL document CHEMBL1143804, “Synthesis and antibacterial evaluation of 1beta-methyl-2-[5-(1-methoxyimino-2-substituted sulfonamide ethyl)pyrrolidin-3-ylthio]carbapenems and their related compounds” (2007)

Experiments:
Pseudomonas aeruginosa [1] = test: Antibacterial activity against Pseudomonas aeruginosa 77/2; format: functional
Pseudomonas aeruginosa [2] = test: Antibacterial activity against Pseudomonas aeruginosa 880/2; format: functional
Staphylococcus aureus [3] = test: Antibacterial activity against Staphylococcus aureus 209P; format: functional
Enterobacter cloacae [4] = test: Antibacterial activity against Enterobacter cloacae; format: functional
Serratia marcescens [5] = test: Antibacterial activity against Serratia marcescens 370; format: functional
Priestia megaterium = test: Antibacterial activity against Bacillus megaterium; format: functional
Salmonella typhimurium = test: Antibacterial activity against Salmonella Typhimurium; format: functional, Salmonella enterica subsp. enterica serovar Typhimurium; conditions: Salmonella enterica
Bacillus subtilis = test: Antibacterial activity against Bacillus subtilts ATCC 6633; format: functional
Klebsiella pneumoniae = test: Antibacterial activity against Klebsiella pneumonise 477; format: functional
Proteus mirabilis [6] = test: Antibacterial activity against Proteus mirabilis 174/3; format: functional
Pseudomonas aeruginosa [7] = test: Antibacterial activity against Pseudomonas aeruginosa 9027; format: functional
Staphylococcus aureus [8] = test: Antibacterial activity against Staphylococcus aureus giorgio; format: functional
Salmonella typhi = test: Antibacterial activity against Salmonella typhi; format: functional, Salmonella enterica subsp. enterica serovar Typhi; conditions: Salmonella enterica
Pasteurella multocida = test: Antibacterial activity against Pasteurella multocida; format: functional
Escherichia coli [9] = test: Antibacterial activity against Escherichia coil V6311/65; format: functional
Enterobacter cloacae [10] = test: Antibacterial activity against Enterobacter cloacae 417; format: functional
Enterococcus durans = test: Antibacterial activity against Streptococcus durans D; format: functional
Pseudomonas aeruginosa [11] = test: Antibacterial activity against Pseudomonas aeruginosa 110/2; format: functional
[12] = Antibacterial activity against Salmonella oranienberg; format: functional, Salmonella enterica subsp. enterica serovar Oranienburg; conditions: Salmonella enterica
Enterococcus faecium = test: Antibacterial activity against Streptococcus faecium 77A; format: functional
Serratia marcescens [13] = test: Antibacterial activity against Serratia marcescens 6093; format: functional
Proteus vulgaris = test: Antibacterial activity against Proteus vulgaris 868; format: functional
Streptococcus pyogenes [14] = test: Antibacterial activity against Streptococcus pyogenes 308A; format: functional
Escherichia coli [15] = test: Antibacterial activity against Escherichia coli DC2; format: functional
Staphylococcus aureus [16] = test: Antibacterial activity against Staphylococcus aureus 503; format: functional
Escherichia coli [17] = test: Antibacterial activity against Escherichia coil 1507; format: functional
Salmonella = test: Antibacterial activity against Salmonella orion; format: functional
Escherichia coli [18] = test: Antibacterial activity against Escherichia coli 0114; format: functional
Streptococcus agalactiae = test: Antibacterial activity against Streptococcus agalactiae B; format: functional
Providencia rettgeri [19] = test: Antibacterial activity against Proteus rettgeri 936; format: functional
Escherichia coli [20] = test: Antibacterial activity against Escherichia coli 086; format: functional
[21] = tested on: Corynebacterium diphtheriae; test: Antibacterial activity against Corynebacterium diphtheriae; format: functional
Streptococcus pyogenes [22] = test: Antibacterial activity against Streptococcus pyogenes 77A; format: functional
Escherichia coli [23] = test: Antibacterial activity against Escherichia coli TEM; format: functional
Burkholderia cepacia = test: Antibacterial activity against Pseudomonas cepacia; format: functional
Proteus mirabilis [24] = test: Antibacterial activity against Proteus mirabilis 112/3; format: functional
[25] = Antibacterial activity against Salmonella give; format: functional, Salmonella enterica subsp. enterica serovar Give; conditions: Salmonella enterica
Escherichia coli [26] = test: Antibacterial activity against Escherichia coli 0126; format: functional
Micrococcus luteus = test: Antibacterial activity against Micrococcus luteus ATCC 9341; format: functional
Klebsiella aerogenes = test: Antibacterial activity against Klebsiella aerogenes 1522E; format: functional
Serratia marcescens [27] = test: Antibacterial activity against Serratia marcescens 14273; format: functional
Providencia rettgeri [28] = test: Antibacterial activity against Proteus rettgeri 937; format: functional
Trueperella pyogenes = test: Antibacterial activity against Corynebacterium pyogenes; format: functional
Enterobacter cloacae [29] = test: Antibacterial activity against Enterobactor cloacae 1321E; format: functional
Staphylococcus aureus [30] = test: Antibacterial activity against Staphylococcus aureus 285; format: functional
Staphylococcus aureus [31] = test: Antibacterial activity against Staphylococcus aureus SG511; format: functional
Salmonella paratyphi = test: Antibacterial activity against Salmonella paratyphi A; format: functional, Salmonella enterica subsp. enterica serovar Paratyphi A; conditions: Salmonella enterica

Measured: MIC

CNS(=O)(=O)NC/C(=N\OC)[C@@H]1C[C@H](SC2=C(C(=O)O)N3C(=O)[C@H]([C@@H](C)O)[C@H]3[C@H]2C)CN1
0.05 µg/mL: Priestia megaterium | Pasteurella multocida | Escherichia coli [9] | Enterobacter cloacae [10] | Escherichia coli [17]
0.049 µg/mL: Staphylococcus aureus [31]
0.1 µg/mL: Enterococcus durans | Salmonella | [25]
0.4 µg/mL: Pseudomonas aeruginosa [2] | Proteus vulgaris | Providencia rettgeri [19] | Burkholderia cepacia | Serratia marcescens [27] | Providencia rettgeri [28]
0.098 µg/mL: Staphylococcus aureus [30]
0.013 µg/mL: Escherichia coli [15] | Enterobacter cloacae [29]
0.8 µg/mL: Pseudomonas aeruginosa [11]
0.025 µg/mL: Salmonella typhimurium | Escherichia coli [23] | Klebsiella aerogenes
0.01 µg/mL: Enterobacter cloacae [4] | [21] | Micrococcus luteus | Trueperella pyogenes
< 0.01 µg/mL: Enterococcus faecium | Streptococcus pyogenes [14] | Streptococcus pyogenes [22]
1.56 µg/mL: Pseudomonas aeruginosa [1] | Pseudomonas aeruginosa [7]
0.2 µg/mL: Serratia marcescens [5] | Proteus mirabilis [6] | [12] | Serratia marcescens [13] | Proteus mirabilis [24]
not listed: Salmonella paratyphi
0.03 µg/mL: all other assays above

CCS(=O)(=O)NC/C(=N\OC)[C@@H]1C[C@H](SC2=C(C(=O)O)N3C(=O)[C@H]([C@@H](C)O)[C@H]3[C@H]2C)CN1
0.781 µg/mL: Klebsiella aerogenes | Enterobacter cloacae [29] | Staphylococcus aureus [30]
12.5 µg/mL: Pseudomonas aeruginosa [7]
0.391 µg/mL: Escherichia coli [15]
1.56 µg/mL: Salmonella typhimurium
0.098 µg/mL: Streptococcus pyogenes [22]
0.195 µg/mL: Streptococcus pyogenes [14] | Escherichia coli [23] | Staphylococcus aureus [31]

CO/N=C(\CNC(C)=O)[C@@H]1C[C@H](SC2=C(C(=O)O)N3C(=O)[C@H]([C@@H](C)O)[C@H]3[C@H]2C)CN1
< 0.01 µg/mL: Streptococcus pyogenes [22]
1.56 µg/mL: Pseudomonas aeruginosa [7]
0.098 µg/mL: Staphylococcus aureus [30]
0.025 µg/mL: Escherichia coli [15] | Escherichia coli [23]
0.049 µg/mL: Salmonella typhimurium | Klebsiella aerogenes | Staphylococcus aureus [31]
0.013 µg/mL: Streptococcus pyogenes [14] | Enterobacter cloacae [29]

CCCNS(=O)(=O)NC/C(=N\OC)[C@@H]1C[C@H](SC2=C(C(=O)O)N3C(=O)[C@H]([C@@H](C)O)[C@H]3[C@H]2C)CN1
0.195 µg/mL: Escherichia coli [23] | Klebsiella aerogenes | Enterobacter cloacae [29] | Staphylococcus aureus [30] | Staphylococcus aureus [31]
0.049 µg/mL: Streptococcus pyogenes [14]
0.025 µg/mL: Streptococcus pyogenes [22]
0.098 µg/mL: Salmonella typhimurium | Escherichia coli [15]
12.5 µg/mL: Pseudomonas aeruginosa [7]

CC(O)[C@H]1C(=O)N2C(C(=O)O)=C(SCCNC=N)C[C@H]12 (single isomer, unassigned) [IMIPENEM ANHYDROUS]
0.195 µg/mL: Escherichia coli [23]
0.098 µg/mL: Klebsiella aerogenes | Enterobacter cloacae [29] | Staphylococcus aureus [31]
0.391 µg/mL: Escherichia coli [15]
< 0.01 µg/mL: Pasteurella multocida | Enterococcus faecium | Streptococcus pyogenes [14] | Staphylococcus aureus [16] | Trueperella pyogenes
0.8 µg/mL: Pseudomonas aeruginosa [1] | Pseudomonas aeruginosa [2] | Pseudomonas aeruginosa [11] | Burkholderia cepacia | Serratia marcescens [27]
0.013 µg/mL: Streptococcus pyogenes [22] | Staphylococcus aureus [30]
0.1 µg/mL: Enterobacter cloacae [4] | Proteus mirabilis [6] | Enterobacter cloacae [10] | Enterococcus durans | Proteus vulgaris | Escherichia coli [17] | Salmonella paratyphi | Escherichia coli [26]
0.781 µg/mL: Salmonella typhimurium | Pseudomonas aeruginosa [7]
0.05 µg/mL: Salmonella typhi | Escherichia coli [9]
0.03 µg/mL: Priestia megaterium | Bacillus subtilis
0.01 µg/mL: Staphylococcus aureus [3] | Staphylococcus aureus [8] | Streptococcus agalactiae | [21] | Micrococcus luteus
0.4 µg/mL: [12] | Serratia marcescens [13]
0.2 µg/mL: all other assays above

C[C@@H](O)[C@H]1C(=O)N2C(C(=O)O)=C(S[C@@H]3CN[C@H](C(=O)N(C)C)C3)[C@H](C)[C@H]12 [MEROPENEM]
0.1 µg/mL: Staphylococcus aureus [3] | Proteus mirabilis [6] | Staphylococcus aureus [8] | Proteus vulgaris | Salmonella | Providencia rettgeri [19] | Proteus mirabilis [24]
0.2 µg/mL: Pseudomonas aeruginosa [2] | Serratia marcescens [27]
0.195 µg/mL: Pseudomonas aeruginosa [7]
0.03 µg/mL: Enterobacter cloacae [4] | Escherichia coli [17] | Escherichia coli [18] | [25] | Trueperella pyogenes
0.098 µg/mL: Staphylococcus aureus [30] | Staphylococcus aureus [31]
< 0.01 µg/mL: Streptococcus pyogenes [22]
0.01 µg/mL: Salmonella typhi | Escherichia coli [9] | Enterobacter cloacae [10] | Enterococcus faecium
0.025 µg/mL: Salmonella typhimurium | Escherichia coli [15] | Escherichia coli [23] | Enterobacter cloacae [29]
0.013 µg/mL: Streptococcus pyogenes [14]
0.8 µg/mL: Pseudomonas aeruginosa [1] | Enterococcus durans
0.4 µg/mL: Pseudomonas aeruginosa [11] | Burkholderia cepacia
0.049 µg/mL: Klebsiella aerogenes
not listed: Salmonella paratyphi
0.05 µg/mL: all other assays above
